According to patent publication EP0591583B1, “Benzo (f) quinolinones as 5-alpha-reductase inhibitors” (ELI LILLY AND COMPANY, priority 1992, dated 1994):

Biological target: T1, 5α-reductase (Homo sapiens, UniProt P18405)
T1 construct: host or cells: Hs68 human genital skin fibroblasts
T1 sequence (P18405 1-259): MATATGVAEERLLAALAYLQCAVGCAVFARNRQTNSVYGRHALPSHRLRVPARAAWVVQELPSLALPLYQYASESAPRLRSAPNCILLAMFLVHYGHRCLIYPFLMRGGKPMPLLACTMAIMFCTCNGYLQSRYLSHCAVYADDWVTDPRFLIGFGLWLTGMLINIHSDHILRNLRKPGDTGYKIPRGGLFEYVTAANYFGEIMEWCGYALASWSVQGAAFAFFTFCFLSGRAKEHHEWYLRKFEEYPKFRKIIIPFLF
Assay: 5α-Reductase activity in Hs68 human genital skin fibroblasts (conversion of labeled testosterone, TLC analysis)
Type: cell-based
Conditions: Hs68
Procedure: Cell Culture: 5α-Reductase activity was measured using Hs68 human genital skin fibroblasts which were originally purchased from the American Type Culture Collection (Rockville, MD). The cells were grown in Dulbecco's Modified Eagle's Medium (DMEM) plus 10% stripped fetal bovine serum which was supplemented with amphotericin B ([…]) and gentamicin ([…]) (GIBCO, Grand Island, NY). The serum was stripped of endogenous steroids by incubation with dextran-coated charcoal prior to its addition to the media. The cells were maintained at 37°C in an atmosphere of 95% air, 5% CO2 and were passaged every 7-10 days by exposure to a trypsin-EDTA solution (0.025% trypsin, 0.265 mM EDTA). Prior to the assay the Hs68 cells were harvested and plated in Falcon 6-well plates (Becton Dickinson Labware, Lincoln Park, NJ) at a density of 6 x 10^4 cells per well. The cells were allowed to grow for 4-5 days or until they reached approximately 80% confluence.
Assay Method I: The substrate was prepared by dissolving unlabeled testosterone (Sigma Chemical Co., St. Louis, MO) in absolute ethanol followed by the addition of [7-^3H (N)]-testosterone (23.3 Ci/mmole, New England Nuclear, Boston, MA). The steroid solution was taken to dryness under a stream of nitrogen and then reconstituted in media.
Assay Method II: The substrate used for this method was [^14C]-testosterone (50 mCi/mmol) (New England Nuclear, Boston, MA). An aliquot of the substrate was taken to dryness under a stream of nitrogen. After the addition of 30 µl of ethanol, the testosterone was dissolved in an appropriate volume of media.
Sample Preparation: The test compounds were brought up in absolute ethanol in order to achieve the desired concentration. Subsequent dilutions of the test compounds with media were performed by the Biomek 1000 Automated Laboratory Workstation (Beckman Instruments, Palo Alto, CA). The existing media in the sample wells was aspirated and replaced with fresh media. Test compound was then added to the wells followed by the addition of 0.5 ml of substrate. The volume of the incubation mixture was maintained at 2.0 ml. The final substrate concentration was 12 µM. The concentration of the test compounds ranged from 0.001-150 µM. An additional three wells (background) containing media and substrate but no cells were also included to account for the non-enzymatic metabolism of the substrate. The plates were returned to the incubator and incubated for four hours.
At the end of the incubation the media was collected and transferred to an extraction tube containing 5 ml of toluene-ethanol (9:1), to which has been added 20-250 µg each of unlabeled carrier steroids (estriol, estradiol, estrone, 5α-androstan-3α,17β-diol, 5α-androstan-3β,17β-diol, 4-androstene-3,17-dione, 5α-androstan-3,17-dione, testosterone, and 5α-dihydrotestosterone) (Steraloids, Inc., Wilton, NH). In the case of Assay Method I the extraction tube also contained 1,000 and 10,000 dpm of [4-^14C]-dihydrotestosterone (50-60 mCi/mmol) and [4-^14C]-testosterone (50 mCi/mmol) (New England Nuclear, Boston, MA), respectively. The [^14C]-steroids were included as recovery standards to quantify procedural losses. A small amount of NaCl was also added to the extraction tubes to prevent foaming. The samples were vortexed for approximately 30 seconds and then centrifuged for 10 minutes at 500 x g. The organic phase was collected and the samples taken to dryness, redissolved in dichloromethane-methanol (9:1) and were analyzed by thin layer chromatography using one of the methods described below.
Chromatography Method I (two-dimensional): The extracted samples were appled to silica gel 60F254, 0.25 mm thick, thin layer chromatography plates (EM Science, Cincinnati, OH). The plates were developed in the first dimension with a solvent system containing dichloromethane-ethyl acetate-methanol-acetic acid (160:38:1.5:0.5, Mallinckrodt Inc., Paris, KY).

Compound CN1C(=O)CC[C@@H]2c3ccc(Cl)cc3CC[C@H]21 (racemic) [Example 6, trans-dl-8-chloro-4-methyl-1,2,3,4,4a,5,6,10b-octahydrobenzo[f]quinolin-3-one] has an inhibition at 1 µM of 100%.

Same assay, conditions: Hs68, test compound 0.316 µM; Hs68 cells; substrate testosterone 12 µM; incubated four hours; read-out: % Inhibition

Compared with CN1C(=O)CC[C@@H]2c3ccc(I)cc3CC[C@H]21 (racemic) [Example 3, trans-dl-8-iodo-4-methyl-1,2,3,4,4a,5,6,10b-octahydrobenzo[f]-quinolin-3-one], CN1C(=O)CCC2c3ccc(C(C)(C)C)cc3CCC21 (racemic) [Example 31, trans-dl-8-t-butyl-4-methyl-1,2,3,4,5,6,10b-octahydrobenzo[f]quinolin-3-one] is lower in inhibition at 0.316 µM: 100% for the first, 82.1% for the second.

First: O=C1CC[C@@H]2c3cc(Cl)c(Cl)cc3CC[C@H]2N1 (racemic) [Example 4, trans-dl-8,9-dichloro-1,2,3,4,4a,5,6,10b-octahydrobenzo[f]quinolin-3-one]
Second: CC(C)(C)c1ccc2c(c1)CCC1NC(=O)CCC21 (racemic) [Example 30, trans-dl-8-t-butyl-1,2,3,4,4a,5,6,10b-octahydrobenzo[f]quinolin-3-one]
The inhibition at 0.316 µM of the first is higher: 82.1% for the first, 38.5% for the second.

Going from CCOC(=O)C=Cc1ccc2c(c1)CCC1C2CCC(=O)N1C (racemic) [Example 16, trans-dl-8-ethoxycarbonylethenediyl-4-methyl-1,2,3,4,4a,5,6,10b-octahydrobenzo[f]quinolin-3-one] to COC(=O)C=Cc1ccc2c(c1)CCC1C2CCC(=O)N1C (racemic) [Example 23, trans-dl-8-methoxycarbonylethenediyl-4-methyl-1,2,3,4,4a,5,6,10b-octahydrobenzo[f]quinolin-3-one], the inhibition at 0.316 µM falls from 80% to 76.5%.

Compared with CCOC(=O)CCc1ccc2c(c1)CCC1C2CCC(=O)N1C (racemic) [Example 22, trans-dl-8-ethoxycarbonylethanediyl-4-methyl-1,2,3,4,4a,5,6,10b-octahydrobenzo[f]quinolin-3-one], CN1C(=O)CCC2c3ccc(C=CC(=O)O)cc3CCC21 (racemic) [Example 24, trans-dl-8-carboxyethenediyl-4-methyl-1,2,3,4,4a,5,6,10b-octahydrobenzo[f]quinolin-3-one] is lower in inhibition at 0.316 µM: 40.7% for the first, 4.96% for the second.

Compared with CN1C(=O)CCC2c3ccc(C=CC(=O)NC(C)(C)C)cc3CCC21 (racemic) [Example 25, trans-dl-8-t-butylaminocarbonylethenediyl-4-methyl-1,2,3,4,4a,5,6,10b-octahydrobenzo[f]quinolin-3-one], CC1(C)CC2NC(=O)CCC2c2ccc(Br)cc21 (racemic) [Example 27, trans-dl-8-bromo-6,6-dimethyl-1,2,3,4,4a,5,6,10b-octahydrobenzo[f]quinolin-3-one] is higher in inhibition at 0.316 µM: 35.9% for the first, 44.7% for the second.

Same assay, conditions: Hs68, test compound 1.00 µM; Hs68 cells; substrate testosterone 12 µM; incubated four hours

First: CN1C(=O)CC[C@@H]2c3ccc(Br)cc3CC[C@H]21 (racemic) [Example 1A, trans-dl-8-bromo-4-methyl-1,2,3,4,4a,5,6,10b-octahydrobenzo[f]quinolin-3-one]
Second: CN1C(=O)CC[C@@H]2c3ccc(Br)cc3CC[C@@H]21 (racemic) [Example 1B, cis-dl-8-bromo-4-methyl-1,2,3,4,4a,5,6,10b-octahydrobenzo[f]quinolin-3-one]
The inhibition at 1 µM of the first is higher: 98% for the first, 92.7% for the second.

Compound CN1C(=O)CC[C@@H]2c3ccc(Cl)cc3CC[C@@H]21 (racemic) [Example 7, cis-dl-8-chloro-4-methyl-1,2,3,4,4a,5,6,10b-octahydrobenzo[f]quinolin-3-one] has an inhibition at 1 µM of 100%.

Same assay, conditions: Hs68, test compound 1.00 µM; Hs68 cells; substrate testosterone 12 µM; incubated four hours; read-out: % Inhibition

O=C1CC[C@@H]2c3ccc(Br)cc3CC[C@H]2N1 (racemic) [Example 2, trans-dl-8-bromo-1,2,3,4,4a,5,6,10b-octahydrobenzo[f]quinolin-3-one] and O=C1CCC2c3ccc(Cl)cc3CCC2N1 (racemic) [Example 17, trans-dl-8-chloro-1,2,3,4,4a,5,6,10b-octahydrobenzo[f]quinolin-3-one] are the same in inhibition at 1 µM: 100% for the first, 100% for the second.

CN1C(=O)CC[C@@H]2c3cc(Cl)c(Cl)cc3CC[C@H]21 (racemic) [Example 5, trans-dl-8,9-dichloro-4-methyl-1,2,3,4,4a,5,6,10b-octahydrobenzo[f]quinolin-3-one] and Cc1ccc2c(c1)CC[C@@H]1[C@@H]2CCC(=O)N1C (racemic) [Example 8, trans-dl-4,8-dimethyl-1,2,3,4,4a,5,6,10b-octahydrobenzo[f]quinolin-3-one] are the same in inhibition at 1 µM: 100% for the first, 100% for the second.

Cc1ccc2c(c1)CC[C@H]1[C@@H]2CCC(=O)N1C (racemic) [Example 9, cis-dl-4,8-dimethyl-1,2,3,4,4a,5,6,10b-octahydrobenzo[f]quinolin-3-one] and CN1C(=O)CC[C@@H]2c3ccc(F)cc3CC[C@H]21 (racemic) [Example 10, trans-dl-8-fluoro-4-methyl-1,2,3,4,4a,5,6,10b-octahydrobenzo[f]quinolin-3-one] are the same in inhibition at 1 µM: 100% for the first, 100% for the second.

Compared with CN1C(=O)CC[C@@H]2c3ccc(F)cc3CC[C@@H]21 (racemic) [Example 11, cis-dl-8-fluoro-4-methyl-1,2,3,4,4a,5,6,10b-octahydrobenzo[f]quinolin-3-one], COc1ccc2c(c1)CCC1C2CCC(=O)N1C (racemic) [Example 19, trans-dl-8-methoxy-4-methyl-1,2,3,4,4a,5,6,10b-octahydrobenzo[f]quinolin-3-one] is higher in inhibition at 1 µM: 59.2% for the first, 93.2% for the second.

Compared with COc1ccc2c(c1)CCC1NC(=O)CCC21 (racemic) [Example 18, trans-dl-8-methoxy-1,2,3,4,4a,5,6,10b-octahydrobenzo[f]quinolin-3-one], Cc1ccc2c(c1)CCC1NC(=O)CCC21 (racemic) [Example 20, trans-dl-8-methyl-1,2,3,4,4a,5,6,10b-octahydrobenzo[f]quinolin-3-one] is higher in inhibition at 1 µM: 69.8% for the first, 86.6% for the second.

With O=C1CCC2c3ccccc3CCC2N1 (racemic) [Example 21, trans-dl-1,2,3,4,4a,5,6,10b-octahydrobenzo[f]quinolin-3-one] the inhibition at 1 µM was 100%.

Same assay, conditions: Hs68, test compound 3.16 µM; Hs68 cells; substrate testosterone 12 µM; incubated four hours

O=C1CCC2c3ccc(F)cc3CCC2N1 (racemic) [Example 15, trans-dl-8-fluoro-1,2,3,4,4a,5,6,10b-octahydrobenzo[f]quinolin-3-one] showed an inhibition at 3.16 µM of 100%.

Same assay, conditions: Hs68, test compound 15.00 µM; Hs68 cells; substrate testosterone 12 µM; incubated four hours

For O=C1CCC2c3ccccc3CCC2N1 (racemic) [Example 14, cis-dl-1,2,3,4,4a,5,6,10b-octa-hydrobenzo[f]quinolin-3-one], the inhibition at 15 µM was 31.7%.

Same assay, conditions: test compound 0.316 µM; Hs68 cells; substrate testosterone 12 µM; incubated four hours

With CC1CC2c3ccc(Cl)cc3CCC2N(C)C1=O (racemic) [Example 26A, trans-dl-8-chloro-2-(α-methyl)-4-methyl-1,2,3,4,4a,5,6,10b-octahydrobenzo[f]quinolin-3-one] the “% Inhibition” value was 82.56%.
For CC1CC2c3ccc(Cl)cc3CCC2N(C)C1=O (racemic) [Example 26B, trans-dl-8-chloro-2-(β-methyl)-4-methyl-1,2,3,4,4a,5,6,10b-octahydrobenzo[f]quinolin-3-one], the “% Inhibition” value was 76.36%.
